Laboratory results from patent publication US7598072B2 (priority 2003, dated 2009).
Read-outs that look alike come from different tables or passages of the source.

Experiments:
ASLV [1] = details: 30 mM or higher concentrations of NH4Cl; cited from earlier work
ASLV [2] = type: cell-based, avian sarcoma and leukosis virus; details: 3 mM NH4Cl, data not shown
[3] = test system: HIV [EnvA] pseudotyped virus; assay: HIV [EnvA] cell-free fusion/uncoating reaction, HIV-1 early DNA by real-time PCR; type: biochemical; details: 4.5 mM, 200 μg 293 S10 fraction, 6 hour incubation
[4] = test system: ASLV-A vector RCASBP(A)-EGFP; type: biochemical, avian sarcoma and leukosis virus

Cl.N [NH4Cl, ammonium chloride]
ASLV fusion and entry into cells (ASLV [1]): effectively blocked | ASLV fusion and entry into cells (ASLV [2]): unaffected

Nc1ncnc2c1ncn2[C@@H]1O[C@H](CO[P@](=O)(O)O[P@](=O)(O)O[P@@](=O)(O)S)[C@@H](O)[C@H]1O [adenosine 5′-[γ-thio]triphosphate]
effect on stimulation of HIV-1 early DNA synthesis in the cell-free system [3]: markedly reduced | effect on stimulation of ASLV early DNA synthesis in the cell-free system ([4]; 2.5 mM, 150 μg 293 S10 fraction, 6 hour incubation): markedly reduced

apyrase
effect on amount of ASLV early DNA products ([4]; 10 units/ml apyrase added 30 minutes or later after initiating the cell-free reaction): little or no effect | effect on amount of ASLV early DNA products ([4]; 10 units/ml apyrase, 150 μg 293 S10 fraction): reduced
